ChEMBL document CHEMBL1641443, “Design, synthesis and biological evaluation of small molecule inhibitors of CD4-gp120 binding based on virtual screening” (Bioorg Med Chem, 2011)

System: Human immunodeficiency virus 1
Assay: Antiviral activity against recombinant HIV1 YU2 in Cf2Th-CCR5 cells assessed as viral infectivity by luciferase assasy relative to JRC-II-191; note: test concentration or dose not given here
Type: functional, isolate YU2

Compound	fold change (FC)
NC(=O)C1CCN(CCC(=O)Nc2ccc(Br)cc2)CC1	0
CC1(C)CC(=O)c2cc(C(=O)Nc3ccc(Cl)cc3)c(=O)[nH]c2C1	0
CCN=C(S)N1CCN(CC(=O)Nc2ccc(Br)cc2)CC1	0
Nc1ccc(C(=O)CC(=O)Nc2ccc(Cl)cc2)cc1	0
N=c1oc2cc(O)ccc2cc1C(=O)Nc1ccc(Cl)cc1	0
O=C(CN1CCCCCC1)Nc1ccc(Br)cc1	0
CC1CCCN(CCC(=O)Nc2ccc(Br)cc2)C1 (stereo unspecified)	0
Cc1ccc(N(C)C)cc1NC(=O)COc1ccc(Cl)cc1	0
C[C@@H](Sc1nc(=O)cc(N)[nH]1)C(=O)Nc1ccc(Cl)cc1	0
O=C(COc1ccc(Cl)cc1)Nc1ccc2[nH]c(=O)[nH]c2c1	0
O=C(CSc1nc(=O)[nH]c2c1CCCC2)Nc1ccc(Cl)cc1	0
CN1CCC(NC(=O)Nc2ccc(Cl)cc2Cl)CC1	0
CN1CCCN(C(=O)COc2ccc(Cl)cc2)CC1	0
Cc1cccc(-c2cc(C(=O)Nc3ccc(Cl)cc3)n[nH]2)c1O	0
O=C(Nc1ccc(Cl)cc1)c1cc(-n2cnnc2)[nH]n1	0
CC1(C)OC(=O)N(CCC(=O)Nc2ccc(Cl)cc2)[C@@]1(C)O	0
Cc1cc(OCC(=O)NCc2nc[nH]n2)ccc1Cl	0
O=C(NCCc1cnc[nH]1)Nc1ccc(Cl)c(Cl)c1	0
CC1(C)NC(=O)N(C[C@H](O)COc2ccc(Cl)cc2)C1=O	0
O=C(COC(=O)c1n[nH]c2ccccc12)Nc1ccc(Cl)cn1	0
C[C@H](Sc1nc(N)cc(N)n1)C(=O)Nc1ccc(Cl)cc1	0
CC1(C)CC(NC(=O)C(=O)Nc2ccc3cc[nH]c3c2)CC(C)(C)N1	0
CC1Sc2cc(C(=O)NC3CC(C)(C)NC(C)(C)C3)ccc2NC1=O (stereo unspecified)	0

Compound	fold change (FC)
CC1(C)CC(=NNC(=O)c2n[nH]c3c2CCCC3)CC(C)(C)N1	0
O=C(NCc1ccco1)C(=O)Nc1ccc(Br)cc1	0
CC1(C)CC(NC(=O)C(=O)NCCc2ccc(Cl)cc2)CC(C)(C)N1	0
O=C(Nc1ccc(Br)cc1)c1cc(CN2CCCC2)on1	0
O=C(NCC1COc2ccccc2O1)C(=O)Nc1ccc(Br)cc1 (stereo unspecified)	0
Cc1nn(C)cc1CN(C)CC(=O)Nc1ccc(Br)cc1	0
COc1cccc(N[C@@H](C)C(=O)Nc2ccc(Br)cc2)c1	0
O=C(NCc1ccc2c(c1)OCO2)C(=O)Nc1ccc(Br)cc1	0
COc1cccc(NC(=O)C(=O)Nc2ccc(Cl)cc2)c1	0
O=C(CSCc1cc(O)[nH]n1)Nc1ccc(Br)cc1	0
CCN1CCCC1CNC(=O)C(=O)Nc1c(C(=O)OC)sc(C)c1C (stereo unspecified)	0
O=C(Nc1ccc(Br)cc1)C(=O)Nc1cccc2ccccc12	0
O=C(NCC1OCCc2ccccc21)C(=O)Nc1ccc(Br)cc1 (stereo unspecified)	0
CC(CC(=O)Nc1ccc(Br)cc1)Nc1cccc(CO)c1 (stereo unspecified)	0
COc1cccc(CNC(=O)C(=O)Nc2ccc(Cl)cc2)c1	0
O=C(NC[C@@H]1COC2(CCCC2)O1)C(=O)Nc1ccc(Cl)cc1	0
CC(C)C1CCN(CCC(=O)Nc2ccc(Br)cc2)CC1	0
Cc1cc(NC(=O)C(=O)c2c[nH]c3ccccc23)ccc1Br	0
C[C@@H]1CN(CCC(=O)Nc2ccc(Br)cc2)C[C@H](C)O1	0
CCOC(=O)[C@H]1CCCN(CCC(=O)Nc2ccc(Br)cc2)C1	0
C[C@H]1CCCN(CCC(=O)Nc2ccc(Cl)cc2)C1	0
Cc1ccc(C(C)C)c(OCC(=O)NNC(=O)Nc2ccc(Cl)cc2)c1	0
O=C(Nc1ccc(Cl)cc1)C(=O)c1c[nH]c2ccccc12	0
